Data on 4 compounds can be found in patent US20040137023A1, “5-Cholesten-3beta, 25-diol-7-one, esters and ethers thereof, particularly for the treatment of dry skin and scalp” (L'OREAL, priority 2002, published 2004).

In the experiment the test system is immortalized human sebocytes derived from the SZ95 line. As to the kind of experiment: Lipogenesis in immortalized human sebocytes in culture (Nile red fluorescence, neutral lipids). The class given is cell-based. As to conditions: for LIPID VARIATION (relative to the control): treatment for 2 days, 0.1% DMSO, Nile red 485-540 nm. The protocol:
5-Cholesten-3β,25-diol-7-one was tested, in comparison with 7-oxocholesterol and 25-hydroxy-cholesterol, on a model of immortalized human sebocytes in culture, derived from the SZ95 line described in Zouboulis, C. C., Seltmann, H., Neitzel, H. and Orfanos, C. E., Establishment and Characterization of an Immortalized Human Sebaceous Gland Cell Line, J. Invest. Dermatol., 113, 1011-1020 (1999).
The test consisted in measuring the amount of lipids produced by the sebocytes of the line (at confluence), in the presence or absence of active agents diluted in DMSO, such that the final amount of DMSO in the culture medium is 0.1%. After treatment for 2 days, the adherent cells are treated with Nile red (1 μg/ml). The lipid content is then quantified by measuring the fluorescence of the dye (excitation/emission pair: 485-540 nm for the neutral lipids).
The tests are performed in sixplicate and the experiment is repeated four times.
In parallel, proliferation tests (MUH) and cell viability tests (LDH) make it possible to check that the effects obtained are not associated with an appreciable change in these biological parameters.

Regarding `CC(C)CCC[C@@H](C)[C@H]1CC[C@H]2[C@@H]3C(=O)C=C4C[C@@H](O)CC[C@]4(C)[C@H]3CC[C@]12C` [7-Oxocholesterol, 7-oxocholesterol], the “LIPID VARIATION (relative to the control)” value (test compound 10^−4 M) is listed as “+20%”.
As to `C[C@]12CC[C@H](O)CC1=CC[C@@H]1[C@@H]2CC[C@]2(C)C(=O)CC[C@@H]12` [DHEA], where the note is “10^−5 M, same test”, the “increase in the lipid content of the sebum” value came to 13%.
On to `C[C@H](CCCC(C)(C)O)C1CCC2C3C(=O)C=C4C[C@@H](O)CC[C@]4(C)C3CC[C@@]21C` (stereo partly drawn) [5-Cholesten-3β,25-diol-7-one], for which the “LIPID VARIATION (relative to the control)” value reads like this: (test compound 10^−4 M) “+90%”; (test compound 10^−5 M) “+85%”.
For the compound `C[C@H](CCCC(C)(C)O)[C@H]1CC[C@H]2[C@@H]3CC=C4C[C@@H](O)CC[C@]4(C)[C@H]3CC[C@]12C` [25-OH cholesterol, 25-hydroxy-cholesterol], for the setting “test compound 10^−4 M”, the “LIPID VARIATION (relative to the control)” value came out at 0%.
